Experimental data as given in US4988681A, “Phosphinic acid derivatives” (Banyu Pharmaceutical Co., Ltd., priority 1988, dated 1991).
Read-outs that look alike come from different tables or passages of the source.

Experiments:
[1] = molecular target: T1, porcine kidney dehydropeptidase I (Sus scrofa, UniProt P22412); assay: Inhibitory activity on porcine kidney dehydropeptidase I (DHP-I); assay type: biochemical
T1 construct: Frozen porcine kidney cortex was homogenized; from tissue; host or cells: porcine kidney cortex
T1 sequence (P22412 17-409): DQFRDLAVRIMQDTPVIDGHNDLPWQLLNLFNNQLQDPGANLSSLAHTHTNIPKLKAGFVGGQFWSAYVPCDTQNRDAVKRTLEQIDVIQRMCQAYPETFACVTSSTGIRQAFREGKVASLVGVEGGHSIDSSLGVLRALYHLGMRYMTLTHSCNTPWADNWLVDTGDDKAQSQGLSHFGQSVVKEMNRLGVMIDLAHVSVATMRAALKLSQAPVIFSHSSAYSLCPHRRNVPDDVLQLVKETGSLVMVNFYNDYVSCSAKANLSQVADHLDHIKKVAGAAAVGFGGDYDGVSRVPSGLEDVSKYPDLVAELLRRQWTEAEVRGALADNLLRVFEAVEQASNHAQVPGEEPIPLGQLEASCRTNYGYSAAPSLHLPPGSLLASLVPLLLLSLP
Method: (1) Inhibitory activity on porcine kidney dehydropeptidase I
(i) Purification of porcine dehydropeptidase I
Frozen porcine kidney cortex was homogenized. Butanol (1/4 volume) pre-cooled in a dry ice-acetone bath was added to the homogenate, and the mixture was stirred at 4° C. for 43 hours. The mixture was then dialyzed for one day and centrifuged at 3,000 g for 30 minutes. To the resulting supernatant was added ammonium sulfate. A precipitate at the salt concentration range between 50 and 75% was collected to give a crude enzyme preparation which was re-dissolved in a 50 mM MOPS buffer containing 0.5 M NaCl. The solution was charged on a cilastatin affinity column. Elution with a 50 mM MOPS buffer containing 0.5 M NaCN gave a purified enzyme preparation.
(ii) Measurement of inhibitory activity
The resulting enzyme preparation (3 mU) and an inhibitor were pre-incubatedat 37° C. for 3 hours in 2.7 ml of a 50 mM MOPS buffer (pH 7.4), and then 2.475 ml of the mixture was transferred into a cuvette. As a substrate, 25 microliters of a 5 mM glycyldehydrophenylalanine solution in a 50 mM MOPS buffer (pH 7.4) was added to start an enzymic reaction. The reaction was carried out at 37° C. in a spectrophotometer fitted with a constant-emperature device, and a decrease of the absorbance at 275 nm during a period of 5 minutes was measured. […] An IC50 value was calculated from the percent inhibition data.
One unit (U) is defined as the amount of the enzyme which hydrolyzes 1 micromole of the substrate (glycyldehydrophenylalanine) per minute at a substrate concentration of 0.05 mM at 37° C. in a 50 mM MOPS buffer (pH 7.4).

[2] = Effect on urinary recovery of carbapenem (imipenem) in rats; assay type: in vivo, Male SD rats; conditions: urine up to 8 hours, n = 3
Method: (2) Effect on urinary recovery of carbapenem
Male SD rats (8 week-old) were grouped, three per group. Imipenem alone was intravenously administered in a dose of 10 mg/kg to a first group. […] For comparison, a combination of imipenem (10 mg/kg) and cilastatin (10 mg/kg) was intravenously administered to a fourth group.
The urinary recovery of imipenem was calculated.

[3] = Pharmacokinetic evaluation: plasma concentration in rats; assay type: in vivo, Male SD rats; conditions: rat; for AUC: trapezoidal rule; for concentration at 0.5 h: 1/2 h; for concentration at 0.25 h: 1/4 h; for concentration at 5 min: 1/12 h
Method: (4) Pharmacokinetic evaluations
Male SD rats ([…]) were divided into groups each consisting of three animals. […] Furthermore, cilastatin was intravenously administered to a 14th group as a control group.
Plasma samples were taken periodically from the carotid artery through a cannula inserted into it at the points of 1/12, 1/4, 1/2, 1, 2, 4, 6, 8 and 24 hours after the administration.
The area under the curve (AUC) of the plasma concentration was determined according to the trapezoidal rule.

DHP-I = conditions: in words, cited from earlier work
[4] = system: nephrotoxicity induced by imipenem; assay: Protective action on nephrotoxicity induced by imipenem in rabbits; assay type: in vivo, male Japanese white rabbits; conditions: imipenem 150 mg/kg alone
Method: (3) Protective action on nephrotoxicity induced by carbapenem antibiotics
Twelve male Japanese white rabbits (18 week-old; body weight 3.19-3.54 kg) were divided into three groups each consisting of 4 animals. Imipenem alone was administered in a dose of 150 mg/kg to a first group. To a second group, a combination of imipenem (150 mg/kg) and the compound No. 2 (150 mg/kg) was administered. To a third group as a control, sterilized physiological saline was administered. In all cases, the administration was effected through the auricular vein. Forty-eight hours later, a blood sample was taken from each of the animals, and the BUN and creatinine values were measured. The kidneys of the rabbits were taken and examined histopathologically.

[5] = in vivo, iv 10 mg/kg (cilastatin dose not given)
[6] = DHP-I inhibitory compounds of cited literature including cilastatin
[7] = substrate glycyldehydrophenylalanine, pH 7.4, 37° C., 3 h pre-incubation, read-out: Concentration producing 50% inhibition (IC50)
[8] = plasma, iv 10 mg/kg (cilastatin dose not given)
[9] = plasma, iv 10 mg/kg (cilastatin dose not given), N.D.: below the detection limit
[10] = plasma, iv 10 mg/kg, N.D.: below the detection limit
[11] = plasma, po 10 mg/kg, N.D.: below the detection limit

SMILES | IC50 [1, 7] | AUC [3, 8] | concentration at 0.5 h [3, 8] | concentration at 0.25 h [3, 8] | concentration at 5 min [3, 8] | concentration at 1 h [3, 9] | concentration at 2 h ([3]; plasma, iv 10 mg/kg) | concentration at 4 h ([3]; plasma, iv 10 mg/kg) | AUC ([3]; plasma, po 10 mg/kg) | concentration at 6 h [3, 10] | concentration at 8 h ([3]; plasma, iv 10 mg/kg) | concentration at 0.5 h ([3]; plasma, po 10 mg/kg) | concentration at 0.25 h ([3]; plasma, po 10 mg/kg) | concentration at 5 min ([3]; plasma, po 10 mg/kg) | concentration at 1 h ([3]; plasma, po 10 mg/kg) | concentration at 2 h ([3]; plasma, po 10 mg/kg) | concentration at 4 h ([3]; plasma, po 10 mg/kg) | concentration at 6 h ([3]; plasma, po 10 mg/kg) | other results
CC1(C)C[C@@H]1C(=O)N/C(=C\CCCCSC[C@H](N)C(=O)O)C(=O)O [Cilastatin, reference compound] |  |  |  |  |  |  |  |  |  |  |  |  |  |  |  |  |  |  | IC50 [1]: 100 nM; Urinary recovery of imipenem, Mean ± S.D. ([2]; inhibitor 10 mg/kg iv with imipenem 10 mg/kg iv): 85.9 ± 2.9%; AUC [3, 5]: 12000 ng·h/mL; concentration at 0.5 h [3, 5]: 5800 ng/mL; concentration at 0.25 h [3, 5]: 18800 ng/mL; concentration at 5 min [3, 5]: 46900 ng/mL; Activity in oral administration (DHP-I; [6]): do not show sufficient activity in oral administration; Duration of action (DHP-I; [6]): do not always have satisfactory duration of action; Effect on potential renal toxicity of imipenem (DHP-I; combined use with imipenem): prevent its potential renal toxicity; Effect on urinary recovery of imipenem (DHP-I; combined use with imipenem): greatly improve urinary recovery of imipenem; Oral absorption (DHP-I): not orally absorbable
CC(C)CP(=O)(O)C/C(=C\CCCSC[C@H](N)C(=O)O)C(=O)O [Compound No. 23, (Z)-6-[(L)-2-amino-2-carboxyethyl]thio-2-(hydroxyisobutylphosphinoyl)methyl-2-hexenoic acid] | 48 nM | 17900 ng·h/mL | 13900 ng/mL | 21000 ng/mL | 28700 ng/mL | 4200 ng/mL | 900 ng/mL | 100 ng/mL |  |  |  |  |  |  |  |  |  |  | 
O=C(O)/C(=C/C1CCCCC1)CP(=O)(O)CC1CCCCC1 [Compound No. 28, (Z)-3-cyclohexyl-2-(cyclohexylmethylhydroxyphosphinoyl)methylpropenoic acid] | 50 nM | 82400 ng·h/mL | 30400 ng/mL | 40600 ng/mL | 58100 ng/mL | 18300 ng/mL | 11700 ng/mL | 4800 ng/mL | 19000 ng·h/mL | 2300 ng/mL | 1000 ng/mL | 3400 ng/mL | 3100 ng/mL | 1300 ng/mL | 2500 ng/mL | 3000 ng/mL | 1900 ng/mL | 1100 ng/mL | concentration at 24 h [3, 10]: 100 ng/mL; concentration at 8 h [3, 11]: 500 ng/mL
CC(C)CP(=O)(O)C/C(=C\C1CC1)C(=O)O [Compound No. 10, (Z)-3-cyclopropyl-2-(hydroxyisobutylphosphinoyl)methylpropenoic acid] | 14 nM | 40600 ng·h/mL | 21700 ng/mL | 26500 ng/mL | 40800 ng/mL | 12800 ng/mL | 5200 ng/mL | 1100 ng/mL | 3900 ng·h/mL | 200 ng/mL | 200 ng/mL | 1400 ng/mL | 1100 ng/mL | 500 ng/mL | 1200 ng/mL | 800 ng/mL | 300 ng/mL | 200 ng/mL | 
C[C@@H](O)[C@H]1C(=O)N2C(C(=O)O)=C(SCCN=CN)C[C@H]12 [Imipenem, reference compound] |  |  |  |  |  |  |  |  |  |  |  |  |  |  |  |  |  |  | Urinary recovery of imipenem, Mean ± S.D. ([2]; imipenem 10 mg/kg iv alone, no inhibitor): 29.6 ± 4.8%; Necrosis of the kidney tissue, number of rabbits which necrotized versus number tested [4]: 4/4; BUN ([4]; auricular vein, 48 hours, * P ≤ 0.05): 70.8 mg/100 ml; Necrosis of the kidney tissue ([4]; grade in words): Marked

Continued, in another order:

IC50 [1, 7] | AUC [3, 8] | concentration at 0.5 h [3, 8] | concentration at 0.25 h [3, 8] | concentration at 5 min [3, 8] | concentration at 1 h [3, 9] | concentration at 2 h ([3]; plasma, iv 10 mg/kg) | concentration at 4 h ([3]; plasma, iv 10 mg/kg) | AUC ([3]; plasma, po 10 mg/kg) | concentration at 6 h [3, 10] | concentration at 8 h ([3]; plasma, iv 10 mg/kg) | concentration at 0.5 h ([3]; plasma, po 10 mg/kg) | concentration at 0.25 h ([3]; plasma, po 10 mg/kg) | concentration at 5 min ([3]; plasma, po 10 mg/kg) | concentration at 1 h ([3]; plasma, po 10 mg/kg) | concentration at 2 h ([3]; plasma, po 10 mg/kg) | concentration at 4 h ([3]; plasma, po 10 mg/kg) | concentration at 6 h ([3]; plasma, po 10 mg/kg) | SMILES | other results
11 nM | 9300 ng·h/mL | 4600 ng/mL | 11300 ng/mL | 28000 ng/mL | 1400 ng/mL | 300 ng/mL | 100 ng/mL |  |  |  |  |  |  |  |  |  |  | CC(C)CP(=O)(O)C/C(=C\CCCC(=O)O)C(=O)O [Compound No. 14, (Z)-2-(hydroxyisobutylphosphinoyl)methyl-2-heptenedioic acid] | 
8.2 nM | 88200 ng·h/mL | 36200 ng/mL | 49400 ng/mL | 51900 ng/mL | 24400 ng/mL | 11900 ng/mL | 4700 ng/mL | 22500 ng·h/mL | 1700 ng/mL | 900 ng/mL | 6400 ng/mL | 4700 ng/mL | 2500 ng/mL | 5300 ng/mL | 3400 ng/mL | 2400 ng/mL | 1100 ng/mL | CC1(C)CC1P(=O)(O)C/C(=C\C1CCCCC1)C(=O)O (centres unmarked) [Compound No. 5, (Z)-3-cyclohexyl-2-(2,2-dimethylcyclopropylhydroxyphosphinoyl)methylpropenoic acid] | concentration at 24 h [3, 10]: 100 ng/mL; concentration at 8 h [3, 11]: 300 ng/mL
